From ChEMBL document CHEMBL5365473, “Novel Sulfonylurea-Based NLRP3 Inflammasome Inhibitor for Efficient Treatment of Nonalcoholic Steatohepatitis, Endotoxic Shock, and Colitis” (J Med Chem, 2023)
Active and inactive are the calls of the source. The rule behind the calls is not given here.

How the values were obtained:
[1] = AUC (0 to infinity) in ICR mouse at 5 mg/kg, iv by LC-MS/MS analysis; format: ADME, organism-based; design: dose 5 mg/kg, route iv; details: in vivo
Mus musculus [2] = test: Antiinflammatory activity against LPS-induced lethal septic shock C57BL/6 mouse model assessed as effect on TNF-alpha level at 40 mg/kg, ip administered for 1 hr prior to LPS challenge and measured after 2.5 hrs by ELISA; format: functional, organism-based; details: time 3.5 hrs
Mus musculus [3] = test: Antiinflammatory activity against DSS-induced ulcerative colitis C57BL/6 mouse assessed as reduction in mucosal barrier disruption in colon at 10 mg/kg, ip administered for 9 days and measured on day 10 by H and E staining based analysis; format: functional, organism-based; details: time 10.0 day
Mus musculus [4] = test: Antiinflammatory activity against MCD diet-induced NASH C57BL/6 mouse model assessed as improvement in liver morphology at 40 mg/kg, po administered via gavage for 5 weeks by Masson's trichrome staining based analysis; format: functional, organism-based
[5] = molecular target: NACHT, LRR and PYD domains-containing protein 3 (Mus musculus) (UniProt Q8R4B8); test: Inhibition of NLRP3 inflammasome in mouse J774.A1 cells assessed as inhibition of IL-1 beta secretion at 30 nM primed with LPS for 4.5 hrs followed by incubation with compound for 24 hrs and later stimulated with nigericin for 1 hr by immunoblot analysis; format: cell-based; details: time 25.0 hrs
Chain of NACHT, LRR and PYD domains-containing protein 3 (Mus musculus) (Q8R4B8 whole entry, the tested form may be a part): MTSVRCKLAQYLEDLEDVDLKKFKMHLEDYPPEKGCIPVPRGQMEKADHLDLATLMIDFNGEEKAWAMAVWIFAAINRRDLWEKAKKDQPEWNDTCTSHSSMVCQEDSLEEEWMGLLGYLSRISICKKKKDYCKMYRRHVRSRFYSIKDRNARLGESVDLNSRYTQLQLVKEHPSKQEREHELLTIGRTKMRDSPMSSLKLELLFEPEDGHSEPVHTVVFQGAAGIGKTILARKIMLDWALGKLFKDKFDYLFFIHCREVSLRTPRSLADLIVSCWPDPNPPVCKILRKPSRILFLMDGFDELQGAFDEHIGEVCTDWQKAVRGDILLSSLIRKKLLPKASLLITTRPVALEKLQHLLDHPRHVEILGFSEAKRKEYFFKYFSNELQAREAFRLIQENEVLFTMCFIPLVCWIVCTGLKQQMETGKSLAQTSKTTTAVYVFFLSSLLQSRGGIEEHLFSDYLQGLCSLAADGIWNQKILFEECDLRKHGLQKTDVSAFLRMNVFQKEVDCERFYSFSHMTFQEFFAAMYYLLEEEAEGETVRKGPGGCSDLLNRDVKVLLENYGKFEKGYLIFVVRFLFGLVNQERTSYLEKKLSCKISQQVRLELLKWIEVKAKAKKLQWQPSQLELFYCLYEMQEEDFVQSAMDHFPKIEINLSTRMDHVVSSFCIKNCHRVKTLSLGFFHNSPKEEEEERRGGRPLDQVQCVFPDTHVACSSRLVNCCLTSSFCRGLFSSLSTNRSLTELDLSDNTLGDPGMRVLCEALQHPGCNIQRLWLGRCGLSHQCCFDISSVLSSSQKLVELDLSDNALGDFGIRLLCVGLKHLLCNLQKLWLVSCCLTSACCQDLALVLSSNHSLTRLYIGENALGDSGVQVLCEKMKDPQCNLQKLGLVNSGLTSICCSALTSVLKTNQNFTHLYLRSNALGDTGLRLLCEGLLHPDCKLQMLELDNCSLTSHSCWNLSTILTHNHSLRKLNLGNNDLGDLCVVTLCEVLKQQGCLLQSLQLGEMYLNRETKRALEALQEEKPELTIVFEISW

THP-1 = test: Effect on mitochondrial function in PMA-induced differentiated human THP-1 cells assessed as effect on extracellular ATP-induced decrease in mitochondrial membrane potential at 30 nM pretreated with compound for 24 hrs followed by stimulation with LPS for 4.5 hrs and ATP for 1 hr by MitoTracker red dye based confocal microscopy; format: functional, cell-based; details: time 29.5 hrs
[6] = Toxicity against female ICR mouse assessed as effect on kidney weight at 200 to 500 mg/kg administered via gavage for 12 days; format: organism-based; details: in vivo, po, 288 h, dose 200-500 mg/kg, time 12 day
Mus musculus [7] = test: Antiinflammatory activity against MCD diet-induced NASH C57BL/6 mouse model assessed as improvement in liver morphology at 40 mg/kg, po administered via gavage for 5 weeks by H and E staining based analysis; format: functional, organism-based
Mus musculus [8] = test: Antiinflammatory activity against MCD diet-induced NASH C57BL/6 mouse model assessed as reduction in liver steatosis at 40 mg/kg, po administered via gavage for 5 weeks by Masson's trichrome staining based analysis; format: functional, organism-based
Mus musculus [9] = test: Antiinflammatory activity against DSS-induced ulcerative colitis C57BL/6 mouse assessed as reduction in inflammatory cells infiltration in lamina propria in colon at 10 mg/kg, ip administered for 9 days and measured on day 10 by H and E staining based analysis; format: functional, organism-based; details: time 10.0 day
L02 = test: Cytotoxicity against human HL7702 cells assessed as reduction in cell viability at 500 uM measured after 24 hrs by CCK8 assay; format: toxicity, cell-based; details: l02, 24 h
[10] = Toxicity against female ICR mouse assessed as effect on brain weight at 200 to 500 mg/kg administered via gavage for 12 days; format: organism-based; details: in vivo, po, 288 h, dose 200-500 mg/kg, time 12 day
Mus musculus [11] = test: Antiinflammatory activity against MCD diet-induced NASH C57BL/6 mouse model assessed as reduction in liver fibrosis at 40 mg/kg, po administered via gavage for 5 weeks by Sirius red staining based analysis; format: functional, organism-based
Mus musculus [12] = test: Antiinflammatory activity against MCD diet-induced NASH C57BL/6 mouse model assessed as reduction in balloon dilatation in liver at 40 mg/kg, po administered via gavage for 5 weeks by H and E staining based analysis; format: functional, organism-based
Hepatocyte = test: Cytotoxicity against mouse primary hepatic cells assessed as reduction in cell viability at 200 uM measured after 24 hrs by CCK8 assay; format: toxicity, cell-based; details: hepatocytes
[13] = Toxicity against female ICR mouse assessed as effect on liver weight at 200 to 500 mg/kg administered via gavage for 12 days; format: organism-based; details: in vivo, po, 288 h, dose 200-500 mg/kg, time 12 day
[14] = Toxicity against male ICR mouse assessed as effect on body weight at 200 to 500 mg/kg administered via gavage for 12 days; format: organism-based; details: in vivo, po, 288 h, dose 200-500 mg/kg, time 12 day
Mus musculus [15] = test: Antiinflammatory activity against LPS-induced lethal septic shock C57BL/6 mouse model assessed as reduction in serum IL-1 beta level at 20 to 40 mg/kg, ip administered for 1 hr prior to LPS challenge and measured after 2.5 hrs by ELISA; format: functional, organism-based; details: dose 20-40 mg/kg, time 3.5 hrs
[16] = Drug uptake in Sprague-Dawley rat adipose tissue at 50 mg/kg, po measured for 24 hrs by LC-MS/MS analysis; format: ADME, organism-based; details: in vivo
[17] = Clearance in ICR mouse at 5 mg/kg, iv by LC-MS/MS analysis; format: ADME, organism-based; details: in vivo
Mus musculus [18] = test: Antiinflammatory activity against DSS-induced ulcerative colitis C57BL/6 mouse assessed as reduction in colon length shortening at 10 mg/kg, ip administered for 9 days and measured on day 10; format: functional, organism-based; details: time 10.0 day
[19] = Toxicity against male ICR mouse assessed as effect on kidney weight at 200 to 500 mg/kg administered via gavage for 12 days; format: organism-based; details: in vivo, po, 288 h, dose 200-500 mg/kg, time 12 day
[20] = Toxicity against female ICR mouse assessed as effect on plasma creatinine level at 200 to 500 mg/kg administered via gavage for 12 days; format: organism-based; details: in vivo, po, 288 h, dose 200-500 mg/kg, time 12 day
Mus musculus [21] = test: Antiinflammatory activity against MCD diet-induced NASH C57BL/6 mouse model assessed as reduction in immune cell infiltration by measuring reduction in F4/80-positive hepatic cells at 40 mg/kg, po administered via gavage for 5 weeks by immunofluorescence staining based analysis; format: functional, organism-based
[22] = molecular target: NACHT, LRR and PYD domains-containing protein 3 (Homo sapiens) (UniProt Q96P20); test: Inhibition of NLRP3 inflammasome in PMA-induced differentiated human THP-1 cells assessed as inhibition of IL-1 beta secretion primed with LPS for 4.5 hrs followed by incubation with compound for 2.5 hrs and later stimulated with ATP for 1 hr by immunoblot analysis; format: cell-based; details: dose 3-30 nM, time 3.5 hrs
Chain of NACHT, LRR and PYD domains-containing protein 3 (Homo sapiens) (Q96P20 whole entry, the tested form may be a part): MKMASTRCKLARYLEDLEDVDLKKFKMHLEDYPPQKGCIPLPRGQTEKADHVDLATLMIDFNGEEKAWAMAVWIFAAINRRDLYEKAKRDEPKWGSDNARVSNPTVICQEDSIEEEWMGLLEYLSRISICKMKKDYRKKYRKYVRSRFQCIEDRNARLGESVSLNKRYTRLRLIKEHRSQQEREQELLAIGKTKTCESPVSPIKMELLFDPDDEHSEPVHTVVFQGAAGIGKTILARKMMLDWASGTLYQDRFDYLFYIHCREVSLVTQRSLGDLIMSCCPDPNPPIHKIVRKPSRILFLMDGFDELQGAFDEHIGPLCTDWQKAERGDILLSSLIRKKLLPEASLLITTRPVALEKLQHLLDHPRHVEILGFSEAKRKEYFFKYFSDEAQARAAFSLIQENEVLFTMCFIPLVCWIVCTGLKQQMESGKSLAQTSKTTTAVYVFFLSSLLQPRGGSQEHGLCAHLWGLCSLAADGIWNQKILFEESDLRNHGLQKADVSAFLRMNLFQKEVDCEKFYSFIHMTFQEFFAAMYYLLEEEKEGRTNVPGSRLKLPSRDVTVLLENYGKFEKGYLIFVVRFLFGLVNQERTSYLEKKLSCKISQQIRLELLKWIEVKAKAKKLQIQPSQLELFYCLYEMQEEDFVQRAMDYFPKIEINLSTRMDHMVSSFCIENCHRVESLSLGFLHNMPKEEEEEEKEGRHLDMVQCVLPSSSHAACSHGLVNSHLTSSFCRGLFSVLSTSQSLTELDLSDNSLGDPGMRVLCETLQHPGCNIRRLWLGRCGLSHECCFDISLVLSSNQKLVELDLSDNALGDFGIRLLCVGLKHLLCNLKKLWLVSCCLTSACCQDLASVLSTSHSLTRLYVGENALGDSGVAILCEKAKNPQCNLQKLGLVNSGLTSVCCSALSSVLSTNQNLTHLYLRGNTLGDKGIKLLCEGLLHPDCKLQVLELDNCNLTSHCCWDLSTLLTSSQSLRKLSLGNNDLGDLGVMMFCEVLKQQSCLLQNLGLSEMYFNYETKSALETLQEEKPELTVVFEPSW

[23] = Drug uptake in Sprague-Dawley rat lungs at 50 mg/kg, po measured for 24 hrs by LC-MS/MS analysis; format: ADME, organism-based, Lung; details: in vivo
Mus musculus [24] = test: Antiinflammatory activity against MCD diet-induced NASH C57BL/6 mouse model assessed as protection against MCD diet-induced increase in liver to body weight ratio at 40 mg/kg, po administered via gavage for 5 weeks; format: functional, organism-based
Mus musculus [25] = test: Antiinflammatory activity against LPS-induced lethal septic shock C57BL/6 mouse model assessed as increase in animal's survival rate at 20 mg/kg, ip administered for 1 hr prior to LPS challenge and measured for 72 hrs; format: functional; details: time 73 hrs

## CN(C)Cc1ccc(S(=O)(=O)NC(=O)Nc2c3c(cc4c2CCC4)CCC3)cc1
[1]
  AUC(0-inf): 130 µg·h/mL
Mus musculus [2]
  Activity: inactive
Mus musculus [3]
  Activity: Active
Mus musculus [4]
  Activity: Active
[5]
  inhibition: Active
THP-1
  Activity: inactive
[6]
  Activity: Non-Toxic
Mus musculus [7]
  Activity: Active
Mus musculus [8]
  Activity: Active
Mus musculus [9]
  Activity: Active
L02
  Activity: Non-Toxic
[10]
  Activity: Non-Toxic
Mus musculus [11]
  Activity: Active
Mus musculus [12]
  Activity: Active
Hepatocyte
  Activity: Non-Toxic
[13]
  Activity: Non-Toxic
[14]
  Activity: Non-Toxic
Mus musculus [15]
  Activity: Active
[16]
  Drug uptake: Active
[17]
  clearance: 0.647 mL/min/kg
Mus musculus [18]
  Activity: Active
[19]
  Activity: Non-Toxic
[20]
  Activity: Non-Toxic
Mus musculus [21]
  Activity: Active
[22]
  inhibition: Dose-Dependent Effect
[23]
  Drug uptake: Active
Mus musculus [24]
  Activity: Active
Mus musculus [25]
  survival at 20 mg/kg: 20%
